In test [1] the target is T1, human MDM2 protein (amino acids 2-188) (Homo sapiens, UniProt Q00987).
T1 construct: human MDM2 protein (amino acids 2-188); made in house
The test can be described thus: p53-MDM2 TR-FRET assay (p53-MDM2 Assay 1). In kind it is binding. Conditions: 1.25 nM MDM2-biotinylated, 10 nM Cy5-p53 peptide; read-out: IC50 (μM) of p53-Hdm2 inhibition (TR-FRET) Assay 1. On the procedure:
(§1) Time Resolved Fluorescence Energy Transfer (TR-FRET) Assay
(§2) The inhibition of p53-MDM2 and p53-MDM4 interactions is measured by time resolved fluorescence energy transfer (TR-FRET). Fluorescence energy transfer (or Foerster resonance energy transfer) describes an energy transfer between donor and acceptor fluorescent molecules. For this assay, human MDM2 protein (amino acids 2-188) and human MDM4 protein (amino acids 2-185), tagged with a C-terminal biotin moiety, are used in combination with a Europium labeled streptavidin (Perkin Elmer, Inc., Waltham, Mass., USA) serving as the donor fluorophore. The p53 derived, Cy5 labeled peptide Cy5-TFSDLWKLL (p53 aa18-26) is the energy acceptor. Upon excitation of the donor molecule at 340 nm, binding interaction between MDM2 or MDM4 and the p53 peptide induces energy transfer and enhanced response at the acceptor emission wavelength at 665 nm. Disruption of the formation of the p53-MDM2 or p53-MDM4 complex due to an inhibitor molecule binding to the p53 binding site of MDM2 or MDM4 results in increased donor emission at 620 nm. The ratiometric FRET assay readout is calculated from the raw data of the two distinct fluorescence signals measured in time resolved mode (fluorescence 665 nm/fluorescence 620 nm×1000).
(§3) After addition of 1.25 nM MDM2-biotinylated or 2.5 nM MDM4-biotinylated (internal preparations), and 0.625 nM Europium labeled streptavidin (Perkin Elmer), the solution is pre-incubated for 15 minutes at room temperature, then 10 nM Cy5-p53 peptide (internal preparation) is added before an incubation at room temperature for 15 minutes prior to reading the plate. For measurement of samples, a Victor II microplate reader (Perkin Elmer) is used with the following settings: Excitation 340 nm, Emission Donor 620 nm and Emission Acceptor 665 nm. IC50 values are calculated by curve fitting using XLfit. If not specified, reagents are purchased from Sigma-Aldrich Chemie GmBH, Buchs, Switzerland.
(§4) This assay was used to evaluate compounds displaying inhibition of p53-MDM2 interaction and p53-MDM4 interaction at IC50s of 0.005 to 50 μM (p53-MDM2 Assay 1 and p53-MDM4 Assay 1, respectively). For selected compounds displaying IC50s between […] on MDM2, a slightly modified assay is used with the following adaptations: 0.1 nM MDM2, 0.1 nM Europium labeled streptavidin and Tecan genios Pro is used as a microplate reader for the fluorescence measurements (p53-MDM2 Assay 2).
In general terms: Time-resolved FRET reads energy transfer from a long-lived donor to a nearby acceptor.

The target of test [2] is T2, human MDM4 protein (amino acids 2-185) (Homo sapiens, UniProt O15151).
T2 construct: human MDM4 protein (amino acids 2-185); made in house
T2 sequence (O15151 2-185): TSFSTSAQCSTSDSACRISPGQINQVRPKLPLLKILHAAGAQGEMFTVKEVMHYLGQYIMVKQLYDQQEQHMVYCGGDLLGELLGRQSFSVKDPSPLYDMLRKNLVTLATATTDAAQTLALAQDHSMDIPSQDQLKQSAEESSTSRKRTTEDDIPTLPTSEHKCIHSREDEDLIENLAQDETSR
The experiment in a line: p53-MDM4 TR-FRET assay (p53-MDM4 Assay 1). It counts as binding. The note with it: 2.5 nM MDM4-biotinylated, 10 nM Cy5-p53 peptide; read-out: IC50 (μM) of p53-Hdm4 inhibition (TR-FRET) Assay 1. Here is the method: as §1, §2, §3, §4

T1 sequence (Q00987 2-188): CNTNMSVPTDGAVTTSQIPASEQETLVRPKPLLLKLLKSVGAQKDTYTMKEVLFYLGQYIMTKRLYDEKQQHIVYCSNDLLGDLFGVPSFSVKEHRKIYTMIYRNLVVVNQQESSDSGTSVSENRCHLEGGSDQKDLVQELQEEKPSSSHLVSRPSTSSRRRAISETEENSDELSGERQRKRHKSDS

By IC50 is commonly meant the concentration at which inhibition is half-maximal. With `COc1cc2c(cc1OC(C)C)[C@H](c1ccc(Cl)cc1)N(c1ccc(C(C)(O)c3ccc(NC(C)=O)cc3)cc1)C(=O)C2` (mixture of isomers) [Example 21, N-[4-(1-{4-[(S)-1-(4-Chloro-phenyl)-7-isopropoxy-6-methoxy-3-oxo-3,4-dihydro-1H-isoquinolin-2-yl]-phenyl}-1-hydroxy-ethyl)-phenyl]-acetamide], the IC50 came out at 0.0071 µM in test [1] and 10.4 µM in test [2].
For the molecule `COc1cc2c(cc1OC(C)C)[C@H](c1ccc(Cl)cc1)N(c1ccc(C(C)(O)C3CCOCC3)cc1)C(=O)C2` (mixture of isomers) [Example 30, (S)-1-(4-Chloro-phenyl)-2-{4-[1-hydroxy-1-(tetrahydro-pyran-4-yl)-ethyl]-phenyl}-7-isopropoxy-6-methoxy-1,4-dihydro-2H-isoquinolin-3-one], the IC50 is 0.0037 µM in test [1] and 4.06 µM in test [2].
On the same counts, the results for `COc1cc2c(cc1OC(C)C)[C@H](c1ccc(Cl)cc1)N(c1ccc(C(C)(O)C3CCN(C)CC3)cc1)C(=O)C2` (mixture of isomers) [Example 34, (S)-1-(4-Chloro-phenyl)-2-{4-[1-hydroxy-1-(1-methyl-piperidin-4-yl)-ethyl]-phenyl}-7-isopropoxy-6-methoxy-1,4-dihydro-2H-isoquinolin-3-one] are 0.0051 µM and 5.23 µM.
Take `COc1cc2c(cc1OC(C)C)[C@H](c1ccc(Cl)cc1)N(c1ccc(C(C)(O)C3CCOCC3)c(F)c1)C(=O)C2` (mixture of isomers) [Example 35, (S)-1-(4-Chloro-phenyl)-2-{3-fluoro-4-[1-hydroxy-1-(tetrahydro-pyran-4-yl)-ethyl]-phenyl}-7-isopropoxy-6-methoxy-1,4-dihydro-2H-isoquinolin-3-one]: the half-maximal inhibitory concentration (IC50) is 0.0025 µM in test [1] and 1.48 µM in test [2].
Consider `COc1cc2c(cc1OC(C)C)[C@H](c1ccc(Cl)cc1)N(c1ccc(C(C)(O)C34CCC(CC3)O4)cc1)C(=O)C2` (mixture of isomers) [Example 135, (S)-1-(4-Chloro-phenyl)-2-{4-[1-hydroxy-1-(7-oxa-bicyclo[2.2.1]hept-1-yl)-ethyl]-phenyl}-7-isopropoxy-6-methoxy-1,4-dihydro-2H-isoquinolin-3-one], for which the IC50 was found to be 0.00815 µM in test [1] and 7.61 µM in test [2].
Consider `COc1cc2c(cc1OC(C)C)[C@H](c1ccc(Cl)cc1)N(c1ccc(C(C)(O)C3CC4CCC(C3)S4(=O)=O)cc1)C(=O)C2` (mixture of isomers) [Example 172, (S)-1-(4-Chloro-phenyl)-2-{4-[1-(8,8-dioxo-8-thia-bicyclo[3.2.1]oct-3-yl)-1-hydroxy-ethyl]-phenyl}-7-isopropoxy-6-methoxy-1,4-dihydro-2H-isoquinolin-3-one], for which the concentration for half-maximal inhibition (IC50) worked out at 0.0079 µM in test [1] and 8.05 µM in test [2].
Take `COc1cc2c(cc1OC(C)C)[C@H](c1ccc(Cl)cc1)N(c1ccc([C@](C)(O)C3CCC(F)(F)CC3)cc1)C(=O)C2` (single isomer, unassigned) [Example 46]: the 50% inhibitory concentration (IC50) in test [1] was found to be 0.422 µM.
Take `COc1cc2c(cc1OC(C)C)[C@H](c1ccc(Cl)cc1)N(c1ccc([C@](C)(O)C34CC5CC(CC(C5)C3)C4)cc1)C(=O)C2` (single isomer, unassigned) [Example 143]: the IC50 in test [1] worked out at 2.31 µM.
The same measure, in the same setting: the value for `CCC(C)(O)c1ccc(N2C(=O)Cc3cc(OC)c(OC(C)C)cc3[C@@H]2c2ccc(Cl)cc2)cn1` (stereo partly drawn) [Example 9, (S)-1-(4-Chloro-phenyl)-2-[6-(1-hydroxy-1-methyl-propyl)-pyridin-3-yl]-7-isopropoxy-6-methoxy-1,4-dihydro-2H-isoquinolin-3-one] was 0.459 µM; that for `CCC(C)(O)c1ccc(N2C(=O)Cc3cc(OC)c(OC(C)C)cc3[C@@H]2c2ccc(Cl)cc2)nc1` (stereo partly drawn) [Example 10, (S)-1-(4-Chloro-phenyl)-2-[5-(1-hydroxy-1-methyl-propyl)-pyridin-2-yl]-7-isopropoxy-6-methoxy-1,4-dihydro-2H-isoquinolin-3-one] was 0.247 µM.
`COc1cc2c(cc1OC(C)C)[C@H](c1ccc(Cl)cc1)N(c1ccc(C(C)(O)c3cccnc3)cc1F)C(=O)C2` (stereo partly drawn) [Example 20, (S)-1-(4-Chloro-phenyl)-2-[2-fluoro-4-(1-hydroxy-1-pyridin-3-yl-ethyl)-phenyl]-7-isopropoxy-6-methoxy-1,4-dihydro-2H-isoquinolin-3-one]: the IC50 in test [1] amounted to 0.0723 µM.
Consider `COc1cc2c(cc1OC(C)C)[C@H](c1ccc(Cl)cc1)N(c1ccc(C(C)(O)CCO)cc1)C(=O)C2` (stereo partly drawn) [Example 41, (S)-1-(4-Chloro-phenyl)-2-[4-(1,3-dihydroxy-1-methyl-propyl)-phenyl]-7-isopropoxy-6-methoxy-1,4-dihydro-2H-isoquinolin-3-one], for which, in test [1], the half-inhibitory concentration (IC50) was found to be 0.247 µM.
For `COc1ccc(C(O)(CO)c2ccc(N3C(=O)Cc4cc(OC)c(OC(C)C)cc4[C@@H]3c3ccc(Cl)cc3)cc2)cc1` (stereo partly drawn) [Example 44, (S)-1-(4-Chloro-phenyl)-2-{4-[1,2-dihydroxy-1-(4-methoxy-phenyl)-ethyl]-phenyl}-7-isopropoxy-6-methoxy-1,4-dihydro-2H-isoquinolin-3-one], the IC50 in test [1] amounted to 0.0982 µM.
In the case of `COc1cc2c(cc1OC(C)C)[C@H](c1ccc(Cl)cc1)N(c1ccc(C3(O)CNC3)cc1)C(=O)C2` [Example 56, (S)-1-(4-Chloro-phenyl)-2-[4-(3-hydroxy-azetidin-3-yl)-phenyl]-7-isopropoxy-6-methoxy-1,4-dihydro-2H-isoquinolin-3-one], in test [1], the 50% inhibitory concentration (IC50) worked out at 0.811 µM.
Still for that read-out and setting: for `COc1cc2c(cc1OC(C)C)[C@H](c1ccc(Cl)cc1)N(c1ccc(C3(O)CN(C(C)=O)C3)cc1)C(=O)C2` [Example 57, (S)-2-[4-(1-Acetyl-3-hydroxy-azetidin-3-yl)-phenyl]-1-(4-chloro-phenyl)-7-isopropoxy-6-methoxy-1,4-dihydro-2H-isoquinolin-3-one] the value was 0.262 µM.
Same read-out and setting: for `COC(=O)N1CC(O)(c2ccc(N3C(=O)Cc4cc(OC)c(OC(C)C)cc4[C@@H]3c3ccc(Cl)cc3)cc2)C1` [Example 58, 3-{4-[(S)-1-(4-Chloro-phenyl)-7-isopropoxy-6-methoxy-3-oxo-3,4-dihydro-1H-isoquinolin-2-yl]-phenyl}-3-hydroxy-azetidine-1-carboxylic acid methyl ester] the value was 0.205 µM; for `COc1cc2c(cc1OC(C)C)[C@H](c1ccc(Cl)cc1)N(c1ccc(C3(O)CN(C(=O)N(C)C)C3)cc1)C(=O)C2` [Example 59, 3-{4-[(S)-1-(4-Chloro-phenyl)-7-isopropoxy-6-methoxy-3-oxo-3,4-dihydro-1H-isoquinolin-2-yl]-phenyl}-3-hydroxy-azetidine-1-carboxylic acid dimethylamide], 0.167 µM.
In the case of `COc1cc2c(cc1OC(C)C)[C@H](c1ccc(Cl)cc1)N(c1ccc(C3(O)CN(C(=O)C4CC4)C3)cc1)C(=O)C2` [Example 61, (S)-1-(4-Chloro-phenyl)-2-[4-(1-cyclopropanecarbonyl-3-hydroxy-azetidin-3-yl)-phenyl]-7-isopropoxy-6-methoxy-1,4-dihydro-2H-isoquinolin-3-one], the IC50 in test [1] turned out to be 0.156 µM.
Take `COc1cc2c(cc1OC(C)C)[C@H](c1ccc(Cl)cc1)N(c1ccc(C(C)(O)C34CC5CC(CC(C5)C3)C4)cc1)C(=O)C2` (stereo partly drawn) [Example 141, (S)-2-[4-(1-Adamantan-1-yl-1-hydroxy-ethyl)-phenyl]-1-(4-chloro-phenyl)-7-isopropoxy-6-methoxy-1,4-dihydro-2H-isoquinolin-3-one]: the IC50 in test [1] came to 0.0251 µM.
Turning to `COc1cc2c(cc1OC(C)C)[C@H](c1ccc(Cl)cc1)N(c1ccc(C(C)(O)C3C4CC5CC(C4)CC3C5)cc1)C(=O)C2` (stereo partly drawn) [Example 144, (S)-2-[4-(1-Adamantan-2-yl-1-hydroxy-ethyl)-phenyl]-1-(4-chloro-phenyl)-7-isopropoxy-6-methoxy-1,4-dihydro-2H-isoquinolin-3-one], the concentration for half-maximal inhibition (IC50) in test [1] is 0.123 µM.

These data come from patent publication US8859535B2, “Hydroxy substituted isoquinolinone derivatives” (Novartis AG, priority 2011, dated 2014).
